According to ChEMBL document CHEMBL5537159, “Discovery and SAR of JTE-151: A Novel RORγ Inhibitor for Clinical Development” (J Med Chem, 2024):
Activity calls are given as the source filed them. No cut-off for these calls is given here.

How the values were obtained:
[1] = Selectivity ratio of antagonist activity at human SF1 to inhibition of RORgamma (unknown origin)
[2] = AUCinfinity in Beagle dog at 3 mg/kg, po administered as single dose and measured after 24 hrs; format: ADME, organism-based, Canis lupus familiaris; conditions: in vivo
[3] = Toxicity in CHL cells assessed as chromosomal aberration at 30 to 50 ug/ml incubated for 24 hrs in absence of S9 fraction; format: cell-based, Cricetulus griseus; conditions: chinese hamster, dose 30-50 µg/ml
Cytochrome P450 2A6 = Cytochrome P450 2A6 (Homo sapiens, UniProt P11509); assay: Inhibition of CYP2A6 in human liver microsomes; format: ADME, Microsome
Cytochrome P450 2A6, sequence (P11509 whole entry): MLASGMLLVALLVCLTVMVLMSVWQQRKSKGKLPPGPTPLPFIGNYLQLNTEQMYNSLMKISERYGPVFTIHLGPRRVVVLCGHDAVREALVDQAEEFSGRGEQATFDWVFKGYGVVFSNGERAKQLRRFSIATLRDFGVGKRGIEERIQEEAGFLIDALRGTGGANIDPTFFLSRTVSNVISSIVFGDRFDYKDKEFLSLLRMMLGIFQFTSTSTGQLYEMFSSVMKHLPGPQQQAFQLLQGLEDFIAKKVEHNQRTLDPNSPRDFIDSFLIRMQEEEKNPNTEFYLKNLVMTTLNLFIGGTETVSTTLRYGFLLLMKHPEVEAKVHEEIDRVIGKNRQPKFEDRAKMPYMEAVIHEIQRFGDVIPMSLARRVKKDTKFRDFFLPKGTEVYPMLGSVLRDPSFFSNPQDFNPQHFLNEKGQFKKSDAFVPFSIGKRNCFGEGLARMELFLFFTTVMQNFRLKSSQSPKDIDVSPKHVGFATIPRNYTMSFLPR

[4] = Volume of distribution at steady state in Beagle dog at 1 mg/kg, iv administered as single dose and measured after 24 hrs; format: ADME, organism-based, Canis lupus familiaris; conditions: in vivo, read-out: Vdss
[5] = Genotoxicity in Salmonella typhimurium TA98 at 47 to 1500 ug in presence of S9 fraction by bacterial reverse mutation test; format: toxicity, subcellular, Salmonella enterica subsp. enterica serovar Typhimurium; conditions: dose 47-1500 µg
[6] = molecular target: Voltage-gated L-type calcium channel (Rattus norvegicus, UniProt P22002+Q02485+P27732); assay: Inhibition of rat L-type Ca2+ channel; format: protein assay
[7] = Elimination half life in human at 400 mg/kg, po administered as single dose and measured upto 144 hrs; format: ADME, organism-based; conditions: in vivo, read-out: beta t1/2 (converted)
Cytochrome P450 1A2 = Cytochrome P450 1A2 (Homo sapiens, UniProt P05177); assay: Inhibition of CYP1A2 in human liver microsomes; format: ADME, Microsome
Cytochrome P450 1A2, sequence (P05177 whole entry): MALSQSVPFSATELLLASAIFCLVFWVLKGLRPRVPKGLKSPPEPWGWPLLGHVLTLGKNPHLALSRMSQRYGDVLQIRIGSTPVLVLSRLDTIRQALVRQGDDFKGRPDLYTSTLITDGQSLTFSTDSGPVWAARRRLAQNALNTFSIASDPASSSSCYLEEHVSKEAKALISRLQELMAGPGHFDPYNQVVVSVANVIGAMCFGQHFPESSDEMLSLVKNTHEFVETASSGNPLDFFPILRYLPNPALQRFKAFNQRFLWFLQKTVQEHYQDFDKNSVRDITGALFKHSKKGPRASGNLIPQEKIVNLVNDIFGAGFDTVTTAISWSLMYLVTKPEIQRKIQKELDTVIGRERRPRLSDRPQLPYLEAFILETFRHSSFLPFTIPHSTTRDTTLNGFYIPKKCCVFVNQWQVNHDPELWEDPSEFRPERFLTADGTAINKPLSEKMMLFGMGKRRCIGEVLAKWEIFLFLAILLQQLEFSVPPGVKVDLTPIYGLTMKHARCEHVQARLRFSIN

[8] = Selectivity ratio of agonist activity at mouse GR to inhibition of RORgamma (unknown origin)
[9] = Volume of distribution at steady state in cynomolgus monkey at 1 mg/kg, iv administered as single dose and measured after 24 hrs; format: ADME, organism-based, Macaca fascicularis; conditions: in vivo, read-out: Vdss
[10] = Selectivity ratio of agonist activity at human VDR to inhibition of RORgamma (unknown origin)
[11] = Genotoxicity in Salmonella typhimurium TA1535 at 188 to 5000 ug in absence of S9 fraction by bacterial reverse mutation test; format: toxicity, Salmonella enterica subsp. enterica serovar Typhimurium; conditions: in vivo; dose 188-5000 µg
[12] = Selectivity ratio of antagonist activity at human VDR to inhibition of RORgamma (unknown origin)
Cytochrome P450 2B6 = Cytochrome P450 2B6 (Homo sapiens, UniProt P20813); assay: Inhibition of CYP2B6 in human liver microsomes; format: ADME, Microsome
Cytochrome P450 2B6, sequence (P20813 whole entry): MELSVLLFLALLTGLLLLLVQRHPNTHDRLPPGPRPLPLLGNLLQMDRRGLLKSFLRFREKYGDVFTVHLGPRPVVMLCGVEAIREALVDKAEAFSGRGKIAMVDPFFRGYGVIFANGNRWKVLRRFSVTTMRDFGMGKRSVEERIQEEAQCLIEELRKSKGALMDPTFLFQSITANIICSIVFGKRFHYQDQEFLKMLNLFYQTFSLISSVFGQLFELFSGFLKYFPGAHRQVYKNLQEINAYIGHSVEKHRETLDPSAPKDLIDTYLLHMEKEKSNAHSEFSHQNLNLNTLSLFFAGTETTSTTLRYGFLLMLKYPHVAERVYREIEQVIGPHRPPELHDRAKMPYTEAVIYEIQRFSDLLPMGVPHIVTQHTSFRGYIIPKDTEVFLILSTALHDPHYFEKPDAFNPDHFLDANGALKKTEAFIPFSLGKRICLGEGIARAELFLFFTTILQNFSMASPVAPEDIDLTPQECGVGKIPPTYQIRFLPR

[13] = Tmax in human at 400 […], po administered as single dose and measured upto 144 hrs; format: ADME, organism-based; conditions: in vivo
[14] = Total body clearance in CD(SD) rat at 1 mg/kg, iv administered as single dose and measured after 24 hrs; format: ADME, organism-based; conditions: in vivo
[15] = Selectivity ratio of antagonist activity at human PPARdelta to inhibition of RORgamma (unknown origin)
[16] = AUClast in human at 1600 mg/kg, po administered as single dose and measured upto 144 hrs; format: ADME, organism-based; conditions: in vivo
Adenosine receptor A1 = Adenosine receptor A1 (Homo sapiens, UniProt P30542); assay: Inhibition of human Adenosine A1 receptor
Adenosine receptor A1, sequence (P30542 whole entry): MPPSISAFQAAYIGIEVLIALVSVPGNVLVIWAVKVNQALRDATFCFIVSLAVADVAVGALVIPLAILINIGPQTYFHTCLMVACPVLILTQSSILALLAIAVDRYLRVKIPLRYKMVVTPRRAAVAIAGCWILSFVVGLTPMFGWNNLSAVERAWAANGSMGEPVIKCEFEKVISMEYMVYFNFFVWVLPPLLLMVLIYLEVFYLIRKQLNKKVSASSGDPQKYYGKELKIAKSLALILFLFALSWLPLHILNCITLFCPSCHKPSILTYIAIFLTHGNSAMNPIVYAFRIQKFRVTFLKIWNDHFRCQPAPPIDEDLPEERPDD

[17] = Metabolic stability in human liver microsomes assessed as compound remaining at 5 umol/L measured after 60 mins by UPLC/MS analysis; format: ADME, Microsome; conditions: dose 5 µmol/L, read-out: Stability
[18] = molecular target: GABA-A receptor; anion channel; assay: Inhibition of rat GABA-A receptor; format: protein-complex assay
[19] = AUCinfinity in C57BL/6J mouse at 3 mg/kg, po administered as single dose and measured after 24 hrs; format: ADME, organism-based; conditions: in vivo
[20] = Cmax in human at 200 […], po administered as single dose and measured upto 144 hrs; format: ADME, organism-based; conditions: in vivo
Histamine H3 receptor = Histamine H3 receptor (Homo sapiens, UniProt Q9Y5N1); assay: Inhibition of human histamine H3 receptor
Histamine H3 receptor, sequence (Q9Y5N1 whole entry): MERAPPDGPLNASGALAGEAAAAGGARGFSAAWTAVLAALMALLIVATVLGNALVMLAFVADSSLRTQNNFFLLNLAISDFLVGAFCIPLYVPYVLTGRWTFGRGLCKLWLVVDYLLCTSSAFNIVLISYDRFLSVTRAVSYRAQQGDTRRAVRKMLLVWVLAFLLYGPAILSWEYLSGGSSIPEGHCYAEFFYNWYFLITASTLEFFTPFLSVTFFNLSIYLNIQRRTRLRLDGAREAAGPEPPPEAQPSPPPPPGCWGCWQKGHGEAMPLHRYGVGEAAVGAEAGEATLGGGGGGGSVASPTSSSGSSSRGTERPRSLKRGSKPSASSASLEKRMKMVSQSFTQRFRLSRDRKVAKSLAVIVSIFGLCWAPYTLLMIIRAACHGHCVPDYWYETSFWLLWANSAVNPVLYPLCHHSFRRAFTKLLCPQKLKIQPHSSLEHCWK

[21] = AUClast in human at 100 […], po administered as single dose and measured upto 144 hrs; format: ADME, organism-based; conditions: in vivo
Cytochrome P450 2C19 = Cytochrome P450 2C19 (Homo sapiens, UniProt P33261); assay: Inhibition of CYP2C19 in human liver microsomes; format: ADME, Microsome
Cytochrome P450 2C19, sequence (P33261 whole entry): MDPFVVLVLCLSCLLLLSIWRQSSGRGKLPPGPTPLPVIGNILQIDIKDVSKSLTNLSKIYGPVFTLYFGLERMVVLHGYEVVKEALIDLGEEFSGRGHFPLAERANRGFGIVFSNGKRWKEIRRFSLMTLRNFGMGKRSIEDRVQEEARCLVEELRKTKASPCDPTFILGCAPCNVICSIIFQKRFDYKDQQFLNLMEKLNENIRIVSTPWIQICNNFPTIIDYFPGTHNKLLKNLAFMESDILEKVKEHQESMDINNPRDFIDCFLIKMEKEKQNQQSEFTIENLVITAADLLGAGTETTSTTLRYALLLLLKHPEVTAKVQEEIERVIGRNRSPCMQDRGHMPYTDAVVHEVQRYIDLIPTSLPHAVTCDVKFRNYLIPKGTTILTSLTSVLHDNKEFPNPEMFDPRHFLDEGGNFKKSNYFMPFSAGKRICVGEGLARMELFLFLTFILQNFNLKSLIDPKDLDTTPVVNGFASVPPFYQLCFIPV

[22] = Cmax in human at 60 […], po administered as single dose and measured upto 144 hrs; format: ADME, organism-based; conditions: in vivo
[23] = molecular target: 5-hydroxytryptamine receptor 2A (Homo sapiens, UniProt P28223); assay: Inhibition of human 5-HT2A receptor
5-hydroxytryptamine receptor 2A, sequence (P28223 whole entry): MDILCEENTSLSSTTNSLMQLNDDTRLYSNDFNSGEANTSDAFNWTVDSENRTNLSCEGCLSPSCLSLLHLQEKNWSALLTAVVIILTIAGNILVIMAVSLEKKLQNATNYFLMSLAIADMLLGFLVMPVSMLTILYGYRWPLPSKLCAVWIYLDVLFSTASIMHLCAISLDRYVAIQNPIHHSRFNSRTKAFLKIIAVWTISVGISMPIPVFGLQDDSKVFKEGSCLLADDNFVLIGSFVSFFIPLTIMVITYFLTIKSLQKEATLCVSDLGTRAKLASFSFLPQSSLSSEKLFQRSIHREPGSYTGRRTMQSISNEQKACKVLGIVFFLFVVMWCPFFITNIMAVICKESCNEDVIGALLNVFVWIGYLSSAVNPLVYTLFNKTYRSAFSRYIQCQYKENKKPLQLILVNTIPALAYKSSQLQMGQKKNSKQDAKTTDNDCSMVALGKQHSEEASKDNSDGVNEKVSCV

[24] = Selectivity ratio of agonist activity at human PPARalpha to inhibition of RORgamma (unknown origin)
[25] = Cmax in human at 400 […], po administered as single dose and measured upto 144 hrs; format: ADME, organism-based; conditions: in vivo
[26] = molecular target: T1, Nuclear receptor ROR-gamma (Homo sapiens, UniProt P51449); assay: Inhibition of GAL4 DNA-binding domain fused RORgamma (unknown origin) transfected in CHO-K1 cells incubated for 2 days by luciferase assay; format: cell-based
T1 sequence (P51449 whole entry): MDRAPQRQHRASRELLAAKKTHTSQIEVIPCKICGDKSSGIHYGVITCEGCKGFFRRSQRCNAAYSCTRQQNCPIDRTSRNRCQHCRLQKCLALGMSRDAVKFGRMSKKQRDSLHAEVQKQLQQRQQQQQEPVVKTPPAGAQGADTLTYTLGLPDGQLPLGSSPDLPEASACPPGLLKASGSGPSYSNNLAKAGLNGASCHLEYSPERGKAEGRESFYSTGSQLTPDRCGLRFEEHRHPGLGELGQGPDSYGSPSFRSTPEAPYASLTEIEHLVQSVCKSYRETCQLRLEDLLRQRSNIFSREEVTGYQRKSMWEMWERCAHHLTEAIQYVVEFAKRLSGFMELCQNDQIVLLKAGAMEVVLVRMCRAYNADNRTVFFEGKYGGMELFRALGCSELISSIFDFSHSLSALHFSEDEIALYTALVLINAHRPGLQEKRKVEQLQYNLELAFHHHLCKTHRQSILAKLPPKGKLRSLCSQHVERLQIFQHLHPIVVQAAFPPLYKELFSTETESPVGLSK

[27] = Volume of distribution at steady state in CD(SD) rat at 1 mg/kg, iv administered as single dose and measured after 24 hrs; format: ADME, organism-based; conditions: in vivo, read-out: Vdss
[28] = Lipophilicity, logD of compound by RP-HPLC analysis; format: physicochemical
[29] = Cmax in human at 30 […], po administered as single dose and measured upto 144 hrs; format: ADME, organism-based; conditions: in vivo
[30] = MRT in Beagle dog at 3 mg/kg, po administered as single dose and measured after 24 hrs; format: ADME, organism-based, Canis lupus familiaris; conditions: in vivo
Cytochrome P450 3A4 = Cytochrome P450 3A4 (Homo sapiens, UniProt P08684); assay: Inhibition of CYP3A4 in human liver microsomes using midazolam as substrate; format: ADME, Microsome
Cytochrome P450 3A4, sequence (P08684 whole entry, the tested form may be a part): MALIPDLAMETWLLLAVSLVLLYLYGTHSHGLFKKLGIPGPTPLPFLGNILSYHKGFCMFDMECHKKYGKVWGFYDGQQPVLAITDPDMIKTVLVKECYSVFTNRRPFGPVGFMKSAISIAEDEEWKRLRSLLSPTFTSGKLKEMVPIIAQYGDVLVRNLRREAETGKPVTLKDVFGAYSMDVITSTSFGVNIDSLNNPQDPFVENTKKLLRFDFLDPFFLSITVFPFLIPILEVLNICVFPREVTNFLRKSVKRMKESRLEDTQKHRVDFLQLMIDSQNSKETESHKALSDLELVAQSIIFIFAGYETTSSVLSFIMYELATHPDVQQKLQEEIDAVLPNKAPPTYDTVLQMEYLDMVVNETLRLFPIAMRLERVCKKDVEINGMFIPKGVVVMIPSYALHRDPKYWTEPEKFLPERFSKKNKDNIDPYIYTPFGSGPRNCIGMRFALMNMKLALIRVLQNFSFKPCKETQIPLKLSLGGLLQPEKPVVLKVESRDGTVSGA

Mus musculus = assay: Anti-inflammatory activity in complete Freund's adjuvant/MOG (35 to 55 residues)/pertussis toxin-induced experimental autoimmune encephalomyelitis C57BL/6 mouse model assessed as reduction in Th17 cell differentiation by measuring reduction in number of Th17 cells in spinal cords at 3 to 10 mg/kg, po administered once daily for 17 days and measured on day 18 by flow cytometry analysis; format: functional, organism-based; conditions: dose 3-10 mg/kg, time 18.0 day
[31] = Oral bioavailability in Beagle dog at 3 mg/kg administered as single dose and measured after 24 hrs; format: ADME, organism-based, Canis lupus familiaris; conditions: in vivo
Cytochrome P450 3A5 = Cytochrome P450 3A5 (Homo sapiens, UniProt P20815); assay: Inhibition of CYP3A5 in human liver microsomes using midazolam as substrate; format: ADME, Microsome
Cytochrome P450 3A5, sequence (P20815 whole entry): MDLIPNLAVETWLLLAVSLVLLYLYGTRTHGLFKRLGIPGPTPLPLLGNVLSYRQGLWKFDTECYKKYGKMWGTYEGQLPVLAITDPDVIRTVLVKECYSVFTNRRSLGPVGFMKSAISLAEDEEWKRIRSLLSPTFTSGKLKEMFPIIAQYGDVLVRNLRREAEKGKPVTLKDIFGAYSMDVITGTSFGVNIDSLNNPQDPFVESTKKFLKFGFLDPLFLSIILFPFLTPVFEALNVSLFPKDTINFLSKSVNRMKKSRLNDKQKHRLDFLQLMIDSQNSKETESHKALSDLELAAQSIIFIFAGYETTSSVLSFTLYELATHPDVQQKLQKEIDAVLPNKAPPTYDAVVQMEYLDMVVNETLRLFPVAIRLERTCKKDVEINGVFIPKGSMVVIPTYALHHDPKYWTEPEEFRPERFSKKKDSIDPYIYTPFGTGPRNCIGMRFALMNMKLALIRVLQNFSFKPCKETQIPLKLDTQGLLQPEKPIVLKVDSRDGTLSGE

[32] = Selectivity ratio of antagonist activity at human RORalpha to inhibition of RORgamma (unknown origin)

In the case of `Cc1ccc(NC(=O)C[C@H](CCC(=O)O)c2noc([C@H]3C[C@@H](CC(C)(C)C)C3)c2C2CC2)c(Cl)c1`, the Selectivity ratio [1] is reported as greater than 100, the AUC(0-inf) [2] is reported as 118 µM·h and the Activity [3] is reported as “Non-Toxic”. The IC50 (Cytochrome P450 2A6) was greater than 10 µM, the Vd [4] was 0.19 L/kg and the Activity [5] was “Non-Toxic”. The IC50 [6] was greater than 10 µM, the half-life [7] was 7.42 h and the IC50 (Cytochrome P450 1A2) was greater than 10 µM. It also gave a Selectivity ratio [8] greater than 100, a Vd [9] of 0.36 L/kg and a Selectivity ratio [10] greater than 100. For the same molecule, the Activity [11] was “Non-Toxic”, the Selectivity ratio [12] was greater than 100 and the IC50 (Cytochrome P450 2B6) was greater than 10 µM. It also gave a Tmax [13] of 3 h, a clearance [14] of 1.83 mL/min/kg and a Selectivity ratio [15] greater than 100. It also gave an AUC(0-t) at 144 h [16] of 371 µg·h/mL, an IC50 (Adenosine receptor A1) greater than 10 µM and a remaining at 1 h, 5 µM [17] of 73%. The IC50 [18] was greater than 10 µM, the AUC(0-inf) [19] was 173 µM·h and the Cmax [20] was 8790 ng/mL. The IC50 (Histamine H3 receptor) was greater than 10 µM, the AUC(0-t) at 144 h [21] was 21.2 µg·h/mL and the IC50 (Cytochrome P450 2C19) was greater than 10 µM. It also gave a Cmax [22] of 2260 ng/mL, an IC50 [23] greater than 10 µM and a Selectivity ratio [24] greater than 100. It also gave a Cmax [25] of 17500 ng/mL, an EC50 [26] of 0.013 µM and a Vd [27] of 0.34 L/kg. The logD [28] was 5.1, the Cmax [29] was 1220 ng/mL and the MRT [30] was 6.6 h. For the same molecule, the IC50 (Cytochrome P450 3A4) was greater than 10 µM, the Activity (Mus musculus) was “Active” and the bioavailability [31] was 64%. It also gave an IC50 (Cytochrome P450 3A5) greater than 10 µM and a Selectivity ratio [32] greater than 100.
